Assay results: US20090137569A1, “Administration of (3S)-N-hydroxy-4-(sulfonyl)-2,2-dimethyl-3-thiomorpholine carboxamide or (S)-N_hydroxy-4-[4_(but-2-ynyloxy)phenylsulfonyl]-2,2-dimethyl thimomorpholine-3-carboxamide for preventing and/or treating inflammatory skin pathologies/afflictions” (GALDERMA RESEARCH & DEVELOPMENT, priority 2007, published 2009)

Tested on: TPA-induced mouse ear edema
Experiment: TPA-induced mouse ear edema test, single topical application
Assay type: in vivo
Details: Balb/c mice
Method: Evaluation of the Anti-Inflammatory Activity of Apratastat after a Single Topical Application in the TPA-Induced Mouse Ear Edema Test on Balb/c Mice (TPA=Tetradecanoylphorbol Acetate)
Edema is induced by single application of 20 μl of TPA dissolved in acetone at 0.01%.
The test compound is diluted in a TPA solution and applied at a concentration of 0.1%, 0.3% to 1%.
A positive control, betamethasone valerate (VdB), is also tested.
The thickness of the mouse ear is measured at T+6 h.

SMILES	reduction of the edema of the ear induced by TPA (single topical application at 0.1% in TPA solution, ear thickness at T+6 h, NS)	reduction of the edema of the ear induced by TPA (single topical application at 0.3% in TPA solution, ear thickness at T+6 h, **)	reduction of the edema of the ear induced by TPA (single topical application at 1% in TPA solution, ear thickness at T+6 h, **)	anti-inflammatory effect (in words) (single topical application, 0.1% to 1%, TPA-induced ear edema)	reduction in the edema of the ear (single topical application at 0.01%, diluted in TPA solution, ear thickness at T+6 h)
CC1(C)SCCN(S(=O)(=O)c2ccc(OCC#CCO)cc2)[C@H]1C(=O)NO [Apratastat, (3S)—N-hydroxy-4-({4-[(4-hydroxy-2-butynyl)oxy]phenyl}sulfonyl)-2,2-dimethyl-3-thiomorpholinecarboxamide]	25%	47%	49%	dose-dependent anti-inflammatory effect	
CCCCC(=O)O[C@]1(C(=O)CO)[C@@H](C)C[C@H]2[C@@H]3CCC4=CC(=O)C=C[C@]4(C)[C@@]3(F)[C@@H](O)C[C@@]21C [betamethasone valerate, reference compound]					93%
